Values of other authors, collected in patent US11439593B2, “Composition for treating onychomycosis” (NCP NewCare Products GmbH, priority 2017, dated 2022).
Where two headings read alike, the source gives them in different places.

For c1ccc(-c2ccc(C(c3ccccc3)n3ccnc3)cc2)cc1 (centres unmarked) [bifonazole], the “stability in acidic environment” value (pH of about 5) is given as “stable”.

In the case of Cc1cc(C2CCCCC2)n(O)c(=O)c1 [ciclopirox], the “stability in acidic environment” value (pH of about 3) is given as “stable”.

In the case of Clc1ccccc1C(c1ccccc1)(c1ccccc1)n1ccnc1 [clotrimazole], the “stability in acidic environment” value (pH of about 5) is listed as “stable”.

For Clc1ccc(COC(Cn2ccnc2)c2ccc(Cl)cc2Cl)c(Cl)c1 (centres unmarked) [miconazole], the “stability in acidic environment” value (pH of about 3) is given as “stable”.

For CN(C/C=C/C#CC(C)(C)C)Cc1cccc2ccccc12 [terbinafine], the “stability in acidic environment” value (pH of about 3) is given as “stable”.
